Experimental data reported in patent publication US20210386826A1, “Combination for Treating Cancer” (Pfizer Inc., priority 2018, published 2021).

Target: IL-2Rαβ (Homo sapiens, UniProt P01589+P14784)
Description: The term “CD-122-biased cytokine agonist” (also referred to as an interleukin-2 receptor beta (ILRβ), selective agonist) as used herein, refers to an agonist that has a greater affinity for binding to IL-2Rβ than to IL-2Rαβ.

Sequence of IL-2Rαβ (P01589 22-240 limits assumed): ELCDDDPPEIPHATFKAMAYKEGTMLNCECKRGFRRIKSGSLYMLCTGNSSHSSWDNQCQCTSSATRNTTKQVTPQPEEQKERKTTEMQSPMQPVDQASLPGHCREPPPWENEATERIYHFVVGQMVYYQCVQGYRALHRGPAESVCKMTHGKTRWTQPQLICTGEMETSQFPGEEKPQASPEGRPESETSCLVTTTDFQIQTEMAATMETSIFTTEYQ
Sequence of IL-2Rαβ (P14784 27-240 limits assumed): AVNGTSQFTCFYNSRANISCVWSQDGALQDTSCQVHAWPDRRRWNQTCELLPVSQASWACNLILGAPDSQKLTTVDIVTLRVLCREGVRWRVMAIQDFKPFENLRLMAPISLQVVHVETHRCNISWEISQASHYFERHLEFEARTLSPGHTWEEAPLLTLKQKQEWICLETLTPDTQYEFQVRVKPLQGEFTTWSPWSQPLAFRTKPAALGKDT

- decrease in affinity to IL-2Rαβ relative to IL-2: ~60 fold
Substance: (2,7-(bis-methoxyPEG10kD-carboxyamide)(9H-fluorene-9-yl)methyl N-carbamate)6avg interleukin-2 [bempegaldesleukin]
